Values of other authors in patent US20040121025A1, “Oral composition for the treatment and prevention of bone loss” (priority 2002, published 2004).

Assays:
[1] = test system: bone loss; conditions: animal studies
[2] = test system: osteoporosis; conditions: elderly women over the age of 65
[3] = test system: osteoporosis; conditions: including a form of vitamin D commonly used for osteoporosis
[4] = test system: bone mass; conditions: 200 mg three times daily; two years; women age 50-65; placebo groups had significant bone loss
[5] = test system: estrogen like effects; conditions: unlike many of the other isoflavones
[6] = test system: bone demineralization / bone loss; conditions: with supplemental calcium
[7] = test system: bone mass
[8] = test system: bone loss; conditions: men
[9] = test system: bone loss; conditions: animal studies; remark: listed apart in the source
[10] = test system: bone mineral density; conditions: women treated with Lupron for six months; supplemental calcium; placebo decreased significantly
[11] = test system: parathyroid-stimulated osteoclastic activity; conditions: ipriflavone supplementation in rats
[12] = test system: bone loss; conditions: premenopausal women
[13] = test system: parathyroid hormone, vitamin D, prostaglandin E2, and interleukin 1-beta; conditions: animal study, prostaglandin E2, interleukin 1-beta

Compound: CC(C)Oc1ccc2c(=O)c(-c3ccccc3)coc2c1 [ipriflavone, 7-isopropoxysioflavone]
- bone loss associated with long term steroid use [1]: inhibited bone loss
- treatment of osteoporosis [2]: particularly effective
- effect on other bone-preserving agents [3]: enhance the effect of other bone-preserving agents
- bone mass [4]: maintained or improved slightly
- estrogen like effects [5]: does not exhibit estrogen like effects
- safety and efficacy in halting bone loss ([6]; post-menopausal women or women who have had their ovaries removed): safe and effective in halting bone loss
- halting bone demineralization ([6]; postmenopausal women): effective in halting bone demineralization
- maintaining bone mass with lower doses of estrogen ([7]; 0.15-0.30 mg/day estrogen with ipriflavone versus 0.625 mg/day or higher): equally effective in maintaining bone mass
- effect on the effects of estrogen on bone ([7]; in vivo): enhance the effects of estrogen on bone
- preventing bone loss [8]: effective in preventing bone loss in men
- bone loss associated with immobilization [9]: inhibited bone loss
- bone density [10]: no changes in bone density
- parathyroid-stimulated osteoclastic activity and resulting hypercalcemia [11]: inhibited in a dosedependent manner
- rapid bone loss that follows ovariectomy [12]: prevents the rapid bone loss that follows ovariectomy
- inhibition of compounds involved in increased resorption of bone [13]: inhibited a number of compounds known to be involved in increased resorption of bone
